Test results published in ChEMBL document CHEMBL2057122, “Synthesis and positive inotropic evaluation of N-(1-oxo-1,2,4,5-tetrahydro-[1,2,4]triazolo[4,3-a]quinolin-7-yl)acetamides bearing piperazine and 1,4-diazepane moieties” (Bioorg Med Chem Lett, 2012).
Active and inactive are the calls of the source. No cut-off for these calls is given here.

What was measured:
Oryctolagus cuniculus [1] = organism: Oryctolagus cuniculus; test: (§1) Positive inotropic effect in New Zealand White rabbit left atrium assessed as increase in stroke volume at 3 X 10^-5 M by electrocardiogram analysis; type: functional; details: Cardiac atrium
[2] = as §1; type: functional, Oryctolagus cuniculus, Cardiac atrium
Oryctolagus cuniculus [3] = organism: Oryctolagus cuniculus; test: Positive inotropic effect in New Zealand White rabbit beating left atrium assessed as increase in stroke volume at 30 uM/L by electrocardiogram analysis; type: functional, tissue-based; details: Cardiac atrium
[4] = Chronotropic effect in New Zealand White rabbit left atrium assessed as change in heart rate by electrocardiogram analysis relative to control; type: tissue-based, Oryctolagus cuniculus, Cardiac atrium
Oryctolagus cuniculus [5] = organism: Oryctolagus cuniculus; test: Positive inotropic effect in New Zealand White rabbit left atrium assessed as increase in stroke volume at 1 X 10^-4 M by electrocardiogram analysis; type: functional, tissue-based; details: Cardiac atrium

| Structure (SMILES) | Activity (Oryctolagus cuniculus [1]) | Activity [2] [%] | Activity (Oryctolagus cuniculus [3]) | Activity [4] [bpm] | Activity (Oryctolagus cuniculus [5]) |
| --- | --- | --- | --- | --- | --- |
| O=C(CN1CCN(Cc2ccc(Br)cc2)CC1)Nc1ccc2c(c1)CCc1n[nH]c(=O)n1-2 | inactive |  |  |  |  |
| O=C(CN1CCCN(Cc2cccc(Cl)c2)CC1)Nc1ccc2c(c1)CCc1n[nH]c(=O)n1-2 |  | 6.41 | inactive | 120.84 |  |
| O=C(CN1CCN(Cc2c(Cl)cccc2Cl)CC1)Nc1ccc2c(c1)CCc1n[nH]c(=O)n1-2 | inactive |  |  |  |  |
| O=C(CN1CCN(Cc2ccccc2Br)CC1)Nc1ccc2c(c1)CCc1n[nH]c(=O)n1-2 | inactive |  |  |  |  |
| Cc1ccc(CN2CCN(CC(=O)Nc3ccc4c(c3)CCc3n[nH]c(=O)n3-4)CC2)cc1 |  | 5.48 | inactive |  |  |
| O=C(CN1CCCN(Cc2ccc(Cl)cc2)CC1)Nc1ccc2c(c1)CCc1n[nH]c(=O)n1-2 |  | 15.48 | inactive | 121.68 | inactive |
| O=C(CN1CCCN(Cc2ccccc2Cl)CC1)Nc1ccc2c(c1)CCc1n[nH]c(=O)n1-2 |  | 8.98 | inactive | 118.36 |  |
| O=C(CN1CCN(Cc2ccccc2Cl)CC1)Nc1ccc2c(c1)CCc1n[nH]c(=O)n1-2 |  | 4.01 | inactive |  |  |
| O=C(CN1CCN(Cc2ccc(Cl)cc2)CC1)Nc1ccc2c(c1)CCc1n[nH]c(=O)n1-2 |  | 3.09 | inactive |  |  |
| COc1cc(CN2CCN(CC(=O)Nc3ccc4c(c3)CCc3n[nH]c(=O)n3-4)CC2)ccc1OCc1ccccc1 |  | 2.26 |  |  |  |
| O=C(CN1CCN(C/C=C/c2ccccc2)CC1)Nc1ccc2c(c1)CCc1n[nH]c(=O)n1-2 |  | 9.4 | inactive | 99.89 | inactive |
| O=C(CN1CCN(Cc2ccccc2F)CC1)Nc1ccc2c(c1)CCc1n[nH]c(=O)n1-2 |  | 1.82 |  |  |  |
| Cc1ccc(CN2CCCN(CC(=O)Nc3ccc4c(c3)CCc3n[nH]c(=O)n3-4)CC2)cc1 |  | 6.75 | inactive | 111.86 |  |
| Cc1[nH]c(=O)c(C#N)cc1-c1ccncc1 [MILRINONE] |  | 2.46 | inactive |  |  |
| O=C(CN1CCN(Cc2ccccc2)CC1)Nc1ccc2c(c1)CCc1n[nH]c(=O)n1-2 |  | 3.56 | inactive |  |  |
| O=C(CN1CCN(Cc2cccc(Br)c2)CC1)Nc1ccc2c(c1)CCc1n[nH]c(=O)n1-2 | inactive |  |  |  |  |
| O=C(CN1CCN(Cc2cccc(F)c2)CC1)Nc1ccc2c(c1)CCc1n[nH]c(=O)n1-2 | inactive |  |  |  |  |
| COc1ccc(CN2CCN(CC(=O)Nc3ccc4c(c3)CCc3n[nH]c(=O)n3-4)CC2)cc1 |  | 1.46 |  |  |  |
| COc1cc(CN2CCN(CC(=O)Nc3ccc4c(c3)CCc3n[nH]c(=O)n3-4)CC2)ccc1OCc1ccc(Cl)cc1 |  | 2.22 |  |  |  |
| O=C(CN1CCN(Cc2ccc(F)cc2)CC1)Nc1ccc2c(c1)CCc1n[nH]c(=O)n1-2 | inactive |  |  |  |  |
| O=C(CN1CCN(Cc2cccc(Cl)c2)CC1)Nc1ccc2c(c1)CCc1n[nH]c(=O)n1-2 |  | 3.46 | inactive |  |  |
| O=C(CN1CCCN(Cc2ccccc2)CC1)Nc1ccc2c(c1)CCc1n[nH]c(=O)n1-2 |  | 9.07 | inactive | 90.01 |  |
